Assay results: patent publication US20220411381A1, “PYRIMIDINEDIONE DERIVATIVES” (Bayer Aktiengesellschaft, priority 2019, published 2022)
pIC50: −log10 of the molar value. Where two headings read alike, the source gives them in different places.

Experiments:
MDA-MB231 cells = test: In vitro assay 2: BCAT cellular assay, leucine in medium of MDA-MB231 cells; format: cell-based; details: 24 hours incubation, leucine level in medium (LeuDH/diaphorase/resazurin readout), read-out: MDAMB-231 IC50
Procedure: In Vitro Assay 2: BCAT Cellular Assay
Levels of leucine were measured in medium of different tumor cell lines. The enzyme BOAT (Branched chain amino acid transferase) catalyzes the consumption of leucine.
Cells (U87-MG and MDA-MB231 from ATCC) were grown in Dulbecco's Modified Eagle Medium (DMEM) containing 10% fetal calf serum. They were harvested by trypsin and seeded into 96-well plates. Cells were incubated overnight at 37° C. in an atmosphere containing 5% carbon dioxide. The next day test compounds were added to each cell well. The final concentration of dimethylsulfoxide (DMSO) was 0.1% and DMSO controls were included. The plates were then placed in an incubator for 24 hours.
Leucine was measured in an enzymatic readout with leucine dehydrogenase (LeuDH) and diaphorase. Medium is deproteinized with perchloric acid. 30 μl of 1 M aqueous perchloric acid was added to each well and the plates were centrifuged.

[1] = molecular target: T1, recombinant human BCAT1 enzyme (Homo sapiens, UniProt P54687); test: In vitro assay 1a: BCAT1 biochemical assay (coupled LeuDH/NADH fluorescence readout); details: for IC50: BCAT1 IC50 [M]; for pIC50: recombinant human BCAT1 […], 32° C., 100 μM leucine, 50 μM α-ketoglutarate, NADH fluorescence over 90 min, read-out: BCAT1 IC50
T1 construct: purchased ATGen (South Korea) ATGP1479
T1 sequence (P54687 1-386): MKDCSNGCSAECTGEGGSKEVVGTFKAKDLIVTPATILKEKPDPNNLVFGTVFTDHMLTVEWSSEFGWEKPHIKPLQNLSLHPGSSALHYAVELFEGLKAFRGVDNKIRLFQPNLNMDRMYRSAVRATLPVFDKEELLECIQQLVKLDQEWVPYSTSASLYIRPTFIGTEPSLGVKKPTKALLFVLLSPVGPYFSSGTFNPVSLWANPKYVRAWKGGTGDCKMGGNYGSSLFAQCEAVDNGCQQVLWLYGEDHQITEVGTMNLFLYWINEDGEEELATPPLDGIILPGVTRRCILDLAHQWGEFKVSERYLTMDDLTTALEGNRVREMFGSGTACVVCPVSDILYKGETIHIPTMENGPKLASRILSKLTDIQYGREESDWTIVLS
Procedure: (§1) In Vitro Assay 1a and 1b: BCAT1 and BCAT2 Biochemical Assay
(§2) BOAT (Branched chain amino acid transferase) catalyzes transamination of the branched chain amino acid leucine to α-ketoisocaproate (KIC). The BOAT enzymatic reaction was measured in a coupled readout with leucine dehydrogenase (LeuDH) which catalyzes the Nicotinamide adenine dinucleotide (NADH) dependent reduction of KIC to leucine. NADH consumption is measured by fluorescent readout.
(§3) The biochemical reactions were performed at 32° C. in 384-well plates using a reaction volume of 51 μl and the following assay buffer conditions: 50 mM HEPES (2-[4-(2-hydroxyethyl)piperazin-1-yl]ethanesulfonic acid) pH 8.0, 50 mM aqueous solution of ammonium sulfate, 1 mM ethylenediaminetetraacetic acid, 2 mM dithiothreitol, 0.01% bovine serum albumine, 0.005% Brij 35 detergent, 0.5 μM PLP (pyridoxalphosphate), 10 μM NADH, and 50 μM α-ketoglutarate), and 100 μM leucine. […] Test compounds were used in a concentration range between 0.005 and 30 μM. The final DMSO concentration was 2%.
(§4) The reaction was initiated by addition of substrates (Leucine, α-KG, NADH).

[2] = molecular target: T2, recombinant human BCAT2 enzyme (Homo sapiens, UniProt O15382); test: In vitro assay 1b: BCAT2 biochemical assay (coupled LeuDH/NADH fluorescence readout); details: for pIC50: recombinant human BCAT2 […], 32° C., 100 μM leucine, 50 μM α-ketoglutarate, NADH fluorescence over 90 min, read-out: BCAT2 IC50; on BCAT2 IC50 [M]: recombinant human BCAT2 0.75 nM
T2 construct: purchased ATGen (South Korea) ATGP1523
T2 sequence (O15382 28-392): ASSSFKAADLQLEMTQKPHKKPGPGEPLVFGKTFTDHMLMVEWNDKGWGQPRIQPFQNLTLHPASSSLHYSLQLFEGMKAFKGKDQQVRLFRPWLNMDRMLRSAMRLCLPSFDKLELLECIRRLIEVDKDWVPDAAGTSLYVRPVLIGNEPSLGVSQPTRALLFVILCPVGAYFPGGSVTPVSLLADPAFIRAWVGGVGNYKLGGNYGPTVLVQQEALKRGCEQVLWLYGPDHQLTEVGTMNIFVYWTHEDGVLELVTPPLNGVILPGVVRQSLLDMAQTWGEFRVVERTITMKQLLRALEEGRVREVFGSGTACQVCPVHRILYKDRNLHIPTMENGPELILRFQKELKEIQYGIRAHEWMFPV
Procedure: as §1, §2, §3, §4

COc1cc(C#N)c(Oc2ccccc2C)cc1-n1c(=O)cc(C(F)(F)F)[nH]c1=O (racemic) [Example 4, 4-[2,6-Dioxo-4-(trifluoromethyl)-3,6-dihydropyrimidin-1(2H)-yl]-5-methoxy-2-(2-methylphenoxy)benzonitrile (rac)]
pIC50 (MDA-MB231 cells; Homo sapiens, MDA-MB-231, 24 h): < 4.52
IC50 [1]: 1.62e-07 M

Cc1ccccc1Oc1cc(-n2c(=O)cc(C(F)(F)F)[nH]c2=O)c(C)cc1C#N (racemic) [Example 7, 4-[2,6-Dioxo-4-(trifluoromethyl)-3,6-dihydropyrimidin-1(2H)-yl]-5-methyl-2-(2-methylphenoxy)benzonitrile (rac)]
pIC50 (MDA-MB231 cells): < 4.52
pIC50 (MDA-MB231 cells; Homo sapiens, MDA-MB-231, 24 h): 4.52
IC50 ([2]; BCAT2 IC50 [M]): 1.8e-06 M
IC50 [1]: 2.87e-07 M

COc1cc(C#N)c(Oc2ccccc2C)cc1-n1c(=O)cc(C2CC2)[nH]c1=O (racemic) [Example 23, 4-(4-Cyclopropyl-2,6-dioxo-3,6-dihydropyrimidin-1(2H)-yl)-5-methoxy-2-(2-methylphenoxy)benzonitrile (rac)]
pIC50 (MDA-MB231 cells): < 4.52
pIC50 (MDA-MB231 cells; Homo sapiens, MDA-MB-231, 24 h): 4.52
pIC50 [1]: 6.74

COc1cc(C#N)c(Oc2ccccc2C)cc1-n1c(=O)cc(C(F)(F)c2ccccc2)[nH]c1=O (racemic) [Example 24, 4-{4-[Difluoro(phenyl)methyl]-2,6-dioxo-3,6-dihydropyrimidin-1(2H)-yl}-5-methoxy-2-(2-methylphenoxy)benzonitrile (rac)]
pIC50 [2]: 6.22
pIC50 [1]: 6.84

COc1cc(C#N)c(Oc2ccccc2C)cc1-n1c(=O)cc(C(F)(F)Cl)[nH]c1=O (racemic) [Example 25, 4-{4-[Chloro(difluoro)methyl]-2,6-dioxo-3,6-dihydropyrimidin-1(2H)-yl}-5-methoxy-2-(2-methylphenoxy)benzonitrile (rac)]
pIC50 [2]: 5.89
pIC50 [1]: 6.70

Cc1ccccc1Oc1cc(-n2c(=O)cc(C(F)(F)Cl)[nH]c2=O)c(Cl)cc1C#N (racemic) [Example 26, 5-Chloro-4-{4-[chloro(difluoro)methyl]-2,6-dioxo-3,6-dihydropyrimidin-1(2H)-yl}-2-(2-methylphenoxy)benzonitrile (rac)]
pIC50 [2]: 5.66
pIC50 [1]: 6.57

Cc1cccc(C)c1Oc1cc(-n2c(=O)cc(C(F)(F)F)[nH]c2=O)c(Cl)cc1C#N (racemic) [Example 38, 5-Chloro-2-(2,6-dimethylphenoxy)-4-(2,6-dioxo-4-(trifluoromethyl)-2,3-dihydropyrimidin-1(6H)-yl)benzonitrile (rac)]
pIC50 [2]: 5.78
pIC50 [1]: 6.55

Cc1ccccc1Oc1cc(-n2c(=O)cc(C(F)(F)c3ccccc3)[nH]c2=O)c(Cl)cc1C#N (racemic) [Example 53, 5-Chloro-4-{4-[difluoro(phenyl)methyl]-2,6-dioxo-3,6-dihydropyrimidin-1(2H)-yl}-2-(2-methylphenoxy)benzonitrile (rac)]
pIC50 [2]: 5.80
pIC50 [1]: 6.12

Cc1ccccc1Oc1cc(-n2c(=O)cc(C(F)(F)F)[nH]c2=O)c(O)cc1C#N (racemic) [Example 54, 4-[2,6-Dioxo-4-(trifluoromethyl)-3,6-dihydropyrimidin-1(2H)-yl]-5-hydroxy-2-(2-methylphenoxy)benzonitrile (rac)]
pIC50 [2]: 4.81
pIC50 [1]: 5.74

COc1cc(C#N)c(Oc2ccccc2C)cc1-n1c(=O)cc(S(=O)(=O)c2ccccc2)[nH]c1=O (racemic) [Example 76, 4-[4-(Benzenesulfonyl)-2,6-dioxo-3,6-dihydropyrimidin-1(2H)-yl]-5-methoxy-2-(2-methylphenoxy)benzonitrile (rac)]
pIC50 (MDA-MB231 cells): 4.70
pIC50 (MDA-MB231 cells; Homo sapiens, MDA-MB-231, 24 h): < 4.52
pIC50 [2]: 6.34

COc1cc(C#N)c(Oc2ccccc2C)cc1-n1c(=O)cc(C(F)(F)F)[nH]c1=O (single isomer, unassigned) [Example 6, 4-[2,6-Dioxo-4-(trifluoromethyl)-3,6-dihydropyrimidin-1 (2H)-yl]-5-methoxy-2-(2-methylphenoxy)benzonitrile (atrop 2)]
pIC50 (MDA-MB231 cells): < 4.52
IC50 [1]: 6.25e-07 M

COc1cc(C#N)c(Oc2ccccc2C)cc1-n1c(=O)cc(Br)[nH]c1=O (single isomer, unassigned) [Example 21, 4-[4-Bromo-2,6-dioxo-3,6-dihydropyrimidin-1(2H)-yl]-5-methoxy-2-(2-methylphenoxy)benzonitrile (atrop 2)]
pIC50 [2]: 5.52
pIC50 [1]: 6.84

COc1cc(C#N)c(Oc2ccccc2C)cc1-n1c(=O)cc(-c2ccccc2)[nH]c1=O (single isomer, unassigned) [Example 44, 4-(2,6-Dioxo-4-phenyl-3,6-dihydropyrimidin-1(2H)-yl)-5-methoxy-2-(2-methylphenoxy)benzonitrile (atrop 2)]
pIC50 [2]: 5.19
pIC50 [1]: 6.26

COc1cc(C#N)c(Oc2ccccc2C)cc1-n1c(=O)cc(S(C)(=O)=O)[nH]c1=O (single isomer, unassigned) [Example 80, 4-[4-(Methanesulfonyl)-2,6-dioxo-3,6-dihydropyrimidin-1(2H)-yl]-5-methoxy-2-(2-methylphenoxy)benzonitrile (atrop 1)]
pIC50 [2]: 5.60
pIC50 [1]: 6.52

Cc1cccc(C)c1Oc1cc(-n2c(=O)cc(C(F)(F)c3ccccc3)[nH]c2=O)c(F)cc1C#N [Example 57, 4-{4-[Difluoro(phenyl)methyl]-2,6-dioxo-3,6-dihydropyrimidin-1(2H)-yl}-2-(2,6-dimethylphenoxy)-5-fluorobenzonitrile]
pIC50 [2]: 5.30
pIC50 [1]: 5.82

N#Cc1cc(F)c(-n2c(=O)cc(C(F)(F)F)[nH]c2=O)cc1Oc1c(F)cccc1F [Example 63, 2-(2,6-Difluorophenoxy)-4-[2,6-dioxo-4-(trifluoromethyl)-3,6-dihydropyrimidin-1 (2H)-yl]-5-fluorobenzonitrile]
pIC50 (MDA-MB231 cells; Homo sapiens, MDA-MB-231, 24 h): < 4.52

N#Cc1cc(F)c(-n2c(=O)cc(C(F)(F)F)[nH]c2=O)cc1Oc1c(N)cccc1F [Example 64, 2-(2-Amino-6-fluorophenoxy)-4-[2,6-dioxo-4-(trifluoromethyl)-3,6-dihydropyrimidin-1(2H)-yl]-5-fluorobenzonitrile]
pIC50 [2]: 5.59
pIC50 [1]: 6.53

Cc1ccc(Oc2cc(-n3c(=O)cc(C(F)(F)F)[nH]c3=O)c(F)cc2C#N)c(C)c1 [Example 66, 2-(2,4-Dimethylphenoxy)-4-[2,6-dioxo-4-(trifluoromethyl)-3,6-dihydropyrimidin-1(2H)-yl]-5-fluorobenzonitrile]
pIC50 [2]: 4.31
pIC50 [1]: 5.17

Cc1ccccc1Oc1cc(-n2c(=O)cc(S(=O)(=O)c3ccccc3)[nH]c2=O)c(F)cc1C#N [Example 74, 4-[4-(Benzenesulfonyl)-2,6-dioxo-3,6-dihydropyrimidin-1(2H)-yl]-5-fluoro-2-(2-methylphenoxy)benzonitrile]
pIC50 (MDA-MB231 cells): 4.52
pIC50 (MDA-MB231 cells; Homo sapiens, MDA-MB-231, 24 h): < 4.52

Cc1ccccc1Oc1cc(-n2c(=O)cc(S(C)(=O)=O)[nH]c2=O)c(F)cc1C#N [Example 75, 5-Fluoro-4-[4-(methanesulfonyl)-2,6-dioxo-3,6-dihydropyrimidin-1(2H)-yl]-2-(2-methylphenoxy)benzonitrile]
pIC50 [2]: 4.80
pIC50 [1]: 5.57
